Data as given in publication PMC5518096, “Use of a special Brazilian red-light emitting railroad worm Luciferase in bioassays of NEK7 protein Kinase and Creatine Kinase” (BMC Biochemistry, 2017).

Columns and labels:
Test in all cases: ATP consumption, coupled red luciferase luminescence
Type in all cases: biochemical
[1] = target: T1, sMtCK (6xHis-sarcomeric creatine kinase, pUS01) (Homo sapiens, UniProt P17540); conditions: 5 mM creatine, 50 uM ATP, 4 mM MgSO4, pH 8, 37 °C, 30 min
T1 construct: gene CKMT2; 6xHis, pET3b plasmid pUS01 (Schlattner), E. coli BL21(DE3)

NEK7 (6xHis-NEK7) = NEK7 (6xHis-NEK7) (Homo sapiens, UniProt Q8TDX7); conditions: 1 uM ATP, protein substrates NEK9(764-976), MAT1 or CC2D1A(501-940), 4 mM MgSO4, pH 8, 37 °C
NEK7 (6xHis-NEK7), sequence (Q8TDX7 whole entry): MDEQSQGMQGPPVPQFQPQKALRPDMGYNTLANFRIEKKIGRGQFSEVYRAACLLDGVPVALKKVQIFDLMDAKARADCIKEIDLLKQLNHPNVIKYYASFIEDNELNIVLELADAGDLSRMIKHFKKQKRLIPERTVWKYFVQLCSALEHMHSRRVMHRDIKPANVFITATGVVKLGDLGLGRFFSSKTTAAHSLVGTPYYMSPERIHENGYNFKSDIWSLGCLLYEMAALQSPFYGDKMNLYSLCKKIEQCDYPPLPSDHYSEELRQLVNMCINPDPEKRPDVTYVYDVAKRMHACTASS

[2] = target: T2, uMtCK (6xHis-ubiquitous creatine kinase, pUS04) (Homo sapiens, UniProt P12532); conditions: 5 mM creatine, 50 uM ATP, 4 mM MgSO4, pH 8, 37 °C, 30 min
T2 construct: gene CKMT1A; 6xHis, pET3b plasmid pUS04 (Schlattner), E. coli BL21(DE3)

Row | Compound | ATP consumption, coupled red luciferase luminescence [1] | ATP consumption, coupled red luciferase luminescence (NEK7 (6xHis-NEK7)) | ATP consumption, coupled red luciferase luminescence [2]
1 | CN(CC(=O)O)C(=N)N [creatine] | when creatine was added, the light emission was significantly decreased | – | –
2 | Nc1ncnc2c1ncn2[C@@H]1O[C@H](COP(=O)(O)OP(=O)(O)OP(=O)(O)O)[C@@H](O)[C@H]1O [ATP] | ATP was consumed only in the presence of creatine kinase and creatine | ATP consumption by NEK7, due to its phosphorylation of substrate proteins/domains | ATP was consumed only in the presence of creatine kinase and creatine
